≈ marks a conversion by molar mass, not a printed value.
Experiments:
[1] = test system: Cyclin D1, phospho-RB in HCC827 cells; test: immunoblot of signalling proteins in HCC827 cells; format: cell-based; settings: HCC827, 48 hours treatment, TNO155 together with ribociclib (FIG. 2)
Protocol: HCC827 cells were plated in 6-well plates at a density of 2×10^5 cells/well in 2 ml of complete culture medium. […] 48 hours after the treatment, cells were harvested in freshly prepared RIPA cell lysis buffer supplemented with Protease and Phosphatase Inhibitor Cocktail. Proteins extracted from cell lysates were separated by electrophoresis using a NuPAGE 4-12% Bis-Tis gel and were transferred to nitrocellulose membranes, followed by standard immunobloting procedures. The primary antibodies used were all from Cell Signaling Technology with the following catalog numbers: phospho-RB (S807/811, #8516), Cyclin D1 (#2978), cleaved PARP (#9546), phospho-ERK (T202/Y204, #4370), phospho-RSK3 (T356/S360, #9348), phospho-AKT (S473, #4060) and Tubulin (#3873). The signals were visualized by simantanous incubation with goat anti-rabbit secondary antibodies conjugated with Alexa Fluor® 700 and the goat anti-mouse secondary antibody conjugated with IRDye 800 CW for Tubulin (protein loading control) and scanning with an Odyssey Infrared Imager System.

[2] = test system: DETROIT-562 (pharyngeal squamous cell carcinoma); test: antiproliferation in DETROIT-562 cells; format: cell-based; settings: Homo sapiens
[3] = test system: KYSE-520 (esophageal squamous cell carcinoma); test: antiproliferation in KYSE-520 cells; format: cell-based; settings: Homo sapiens
[4] = test system: tumor DUSP6 biomarker; test: dose fractionation studies with tumor DUSP6 biomarker; format: in vivo; settings: attained for at least 80% of the dosing interval
Text: (§1) SHP2 inhibition can be measured by assessing biomarkers within the MAPK signaling pathway, such as decreased levels of phosphorylated ERK1/2 (pERK) and downregulation of dual specificity phosphatase 6 (DUSP6) mRNA transcript.

[5] = test system: phosphorylated ERK1/2 (pERK); test: in vitro pERK inhibition in DETROIT-562 cells; format: cell-based; settings: Homo sapiens
Text: as §1

[6] = test system: tumor xenograft models; test: in vivo anti-tumor activity in tumor xenograft models; settings: subsets of xenograft models incl. breast, melanoma, neuroblastoma, malignant rhabdoid, lung, pancreas, hematological malignancies
[7] = test system: pRb-positive cell lines derived from diverse cancer types; test: pRb phosphorylation and cell cycle in pRb-positive cell lines; format: cell-based; settings: more than 40 pRb-positive cell lines
[8] = tolerability in mice; format: in vivo
[9] = tolerability in rats; format: in vivo
[10] = test system: lineage-matched pRb-negative cell lines; test: cell cycle progression in pRb-negative cell lines; format: cell-based
[11] = up to 28 days, up to 250 mg/kg once daily orally
[12] = up to 28 days, up to 150 mg/kg once daily orally

Row | IC50 [2] [µg/mL] | IC50 [3] [µg/mL] | IC50 [5] [µg/mL] | Structure (SMILES) | ribociclib-induced cyclin D1 accumulation [1] | PD inhibition at which maximal efficacy is achieved [4] [%] | in vivo anti-tumor activity [6] | G1 to S phase cell cycle progression [7] | Retinoblastoma protein (pRb) phosphorylation [7] | myelosuppression ([8]; correlated with pRb inhibition) | body weight loss [8, 11] [%] | tolerability [8, 11] | myelosuppression ([9]; correlated with pRb inhibition) | body weight loss [9, 12] [%] | tolerability [9, 12] | effect on cell cycle progression [10]
1 | 0.198 (≈ 0.47 µM) | 0.0422 (≈ 0.1 µM) | 0.0148 (≈ 0.0351 µM) | C[C@@H]1OCC2(CCN(c3cnc(Sc4ccnc(N)c4Cl)c(N)n3)CC2)[C@@H]1N [TNO155, (3S,4S)-8-(6-amino-5-((2-amino-3-chloropyridin-4-yl)thio)pyrazin-2-yl)-3-methyl-2-oxa-8-azaspiro[4.5]decan-4-amine] | prevention of ribociclib-induced cyclin D1 accumulation | 50 |  |  |  |  |  |  |  |  |  | 
2 |  |  |  | CN(C)C(=O)c1cc2cnc(Nc3ccc(N4CCNCC4)cn3)nc2n1C1CCCC1 [ribociclib, 7-cyclopentyl-N,N-dimethyl-2-((5-(piperazin-1-yl)pyridin-2-yl)amino)-7H-pyrrolo[2,3-d]pyrimidine-6-carboxamide] |  |  | demonstrated in vivo anti-tumor activity | interfered | inhibited | myelosuppression was observed | ≤ 12.5 | well-tolerated | myelosuppression was observed | ≤ 12.5 | well-tolerated | no effect

Source: patent US12343344B2 (NOVARTIS AG, priority 2019, dated 2025)
